Columns and labels:
[1] = test system: NCI-H460; test: NCI in vitro DTP human cell line screen, NCI-H460; format: cell-based; details: Non-Small Cell Lung Cancer, 1.00E−5 Molar
Method: (§1) Then, a cell toxicity assay of the cancer lines made by National Cancer Institute will be discussed as follows. The cell toxicity assay is performed by choosing ten compounds (existing certification numbers) from the 59 compounds disclosed in the present invention first.

[2] = test system: KM12; test: NCI in vitro DTP human cell line screen, KM12; format: cell-based; details: Colon Cancer, 1.00E−5 Molar
Method: as §1

[3] = test system: COLO 205; test: NCI in vitro DTP human cell line screen, COLO 205; format: cell-based; details: Colon Cancer, 1.00E−5 Molar
Method: as §1

[4] = test system: HT29; test: NCI in vitro DTP human cell line screen, HT29; format: cell-based; details: Colon Cancer, 1.00E−5 Molar
Method: as §1

[5] = test system: HCT-15; test: NCI in vitro DTP human cell line screen, HCT-15; format: cell-based; details: Colon Cancer, 1.00E−5 Molar
Method: as §1

[6] = test system: HL-60(TB); test: NCI in vitro DTP human cell line screen, HL-60(TB); format: cell-based; details: Leukemia, 1.00E−5 Molar
Method: as §1

[7] = test system: A3 cell lines; test: MTT assay, A3 cell lines (lung cancer stem cell); format: cell-based
Excerpt: Please to FIG. 4B, various cell viabilities of the A3 cell lines can be obtained through the MTT assay and illustrated in FIG. 4B while the compounds No. 1˜30 are used to treat A3 cell lines, wherein A3 cell lines are lung cancer stem cell.

[8] = test system: MCF7; test: NCI in vitro DTP human cell line screen, MCF7; format: cell-based; details: Breast Cancer, 1.00E−5 Molar
Method: as §1

[9] = test system: UACC-62; test: NCI in vitro DTP human cell line screen, UACC-62; format: cell-based; details: Melanoma, 1.00E−5 Molar
Method: as §1

[10] = test system: IGROV1; test: NCI in vitro DTP human cell line screen, IGROV1; format: cell-based; details: Ovarian Cancer, 1.00E−5 Molar
Method: as §1

[11] = test system: PC-3; test: NCI in vitro DTP human cell line screen, PC-3; format: cell-based; details: Prostate Cancer, 1.00E−5 Molar
Method: as §1

[12] = test system: OVCAR-3; test: NCI in vitro DTP human cell line screen, OVCAR-3; format: cell-based; details: Ovarian Cancer, 1.00E−5 Molar
Method: as §1

[13] = test system: BT-549; test: NCI in vitro DTP human cell line screen, BT-549; format: cell-based; details: Breast Cancer, 1.00E−5 Molar
Method: as §1

[14] = test system: UACC-257; test: NCI in vitro DTP human cell line screen, UACC-257; format: cell-based; details: Melanoma, 1.00E−5 Molar
Method: as §1

[15] = test system: SF-268; test: NCI in vitro DTP human cell line screen, SF-268; format: cell-based; details: CNS Cancer, 1.00E−5 Molar
Method: as §1

[16] = test system: SK-MEL-5; test: NCI in vitro DTP human cell line screen, SK-MEL-5; format: cell-based; details: Melanoma, 1.00E−5 Molar
Method: as §1

[17] = test system: SK-MEL-2; test: NCI in vitro DTP human cell line screen, SK-MEL-2; format: cell-based; details: Melanoma, 1.00E−5 Molar
Method: as §1

[18] = test system: HCT-116; test: NCI in vitro DTP human cell line screen, HCT-116; format: cell-based; details: Colon Cancer, 1.00E−5 Molar
Method: as §1

[19] = test system: RPMI-8226; test: NCI in vitro DTP human cell line screen, RPMI-8226; format: cell-based; details: Leukemia, 1.00E−5 Molar
Method: as §1

[20] = test system: SNB-19; test: NCI in vitro DTP human cell line screen, SNB-19; format: cell-based; details: CNS Cancer, 1.00E−5 Molar
Method: as §1

[21] = test system: DU145; test: NCI in vitro DTP human cell line screen, DU145; format: cell-based; details: Prostate Cancer, 1.00E−5 Molar
Method: as §1

[22] = test system: MDA-MB-435; test: NCI in vitro DTP human cell line screen, MDA-MB-435; format: cell-based; details: Melanoma, 1.00E−5 Molar
Method: as §1

[23] = test system: MOLT-4; test: NCI in vitro DTP human cell line screen, MOLT-4; format: cell-based; details: Leukemia, 1.00E−5 Molar
Method: as §1

[24] = test system: M14; test: NCI in vitro DTP human cell line screen, M14; format: cell-based; details: Melanoma, 1.00E−5 Molar
Method: as §1

[25] = test system: SN12C; test: NCI in vitro DTP human cell line screen, SN12C; format: cell-based; details: Renal Cancer, 1.00E−5 Molar
Method: as §1

[26] = test system: MALME-3M; test: NCI in vitro DTP human cell line screen, MALME-3M; format: cell-based; details: Melanoma, 1.00E−5 Molar
Method: as §1

[27] = test system: HOP-62; test: NCI in vitro DTP human cell line screen, HOP-62; format: cell-based; details: Non-Small Cell Lung Cancer, 1.00E−5 Molar
Method: as §1

[28] = test system: MDA-MB-231/ATCC; test: NCI in vitro DTP human cell line screen, MDA-MB-231/ATCC; format: cell-based; details: Breast Cancer, 1.00E−5 Molar
Method: as §1

[29] = test system: SNB-75; test: NCI in vitro DTP human cell line screen, SNB-75; format: cell-based; details: CNS Cancer, 1.00E−5 Molar
Method: as §1

[30] = test system: SW-620; test: NCI in vitro DTP human cell line screen, SW-620; format: cell-based; details: Colon Cancer, 1.00E−5 Molar
Method: as §1

[31] = test system: OVCAR-8; test: NCI in vitro DTP human cell line screen, OVCAR-8; format: cell-based; details: Ovarian Cancer, 1.00E−5 Molar
Method: as §1

[32] = test system: HCC-2998; test: NCI in vitro DTP human cell line screen, HCC-2998; format: cell-based; details: Colon Cancer, 1.00E−5 Molar
Method: as §1

[33] = test system: U251; test: NCI in vitro DTP human cell line screen, U251; format: cell-based; details: CNS Cancer, 1.00E−5 Molar
Method: as §1

[34] = test system: A control cell lines; test: MTT assay, A control cell lines (lung cancer cell); format: cell-based
Excerpt: Please refer to Table 1 and FIGS. 4A-4C. According to a MTT assay (Table 1), various cell viabilities of the A control cell lines can be obtained and illustrated in FIG. 4A while the compounds No. 2˜30 are used to treat A control cell lines, wherein A control cell lines are lung cancer cell.

[35] = test system: CAKI-1; test: NCI in vitro DTP human cell line screen, CAKI-1; format: cell-based; details: Renal Cancer, 1.00E−5 Molar
Method: as §1

[36] = test system: 60 cancer lines; test: NCI cell toxicity assay of 60 cancer lines, whole panel summary; format: cell-based, human; details: mean over all cell lines; 1.00E−5 Molar
Method: as §1

[37] = test system: RXF 393; test: NCI in vitro DTP human cell line screen, RXF 393; format: cell-based; details: Renal Cancer, 1.00E−5 Molar
Method: as §1

[38] = test system: OVCAR-5; test: NCI in vitro DTP human cell line screen, OVCAR-5; format: cell-based; details: Ovarian Cancer, 1.00E−5 Molar
Method: as §1

[39] = test system: SK-MEL-28; test: NCI in vitro DTP human cell line screen, SK-MEL-28; format: cell-based; details: Melanoma, 1.00E−5 Molar
Method: as §1

[40] = test system: SR; test: NCI in vitro DTP human cell line screen, SR; format: cell-based; details: Leukemia, 1.00E−5 Molar
Method: as §1

[41] = test system: 786-0; test: NCI in vitro DTP human cell line screen, 786-0; format: cell-based; details: Renal Cancer, 1.00E−5 Molar
Method: as §1

[42] = test system: NCI/ADR-RES; test: NCI in vitro DTP human cell line screen, NCI/ADR-RES; format: cell-based; details: Ovarian Cancer, 1.00E−5 Molar
Method: as §1

[43] = test system: SK-OV-3; test: NCI in vitro DTP human cell line screen, SK-OV-3; format: cell-based; details: Ovarian Cancer, 1.00E−5 Molar
Method: as §1

[44] = test system: TK-10; test: NCI in vitro DTP human cell line screen, TK-10; format: cell-based; details: Renal Cancer, 1.00E−5 Molar
Method: as §1

[45] = test system: NCI-H23; test: NCI in vitro DTP human cell line screen, NCI-H23; format: cell-based; details: Non-Small Cell Lung Cancer, 1.00E−5 Molar
Method: as §1

[46] = test system: T-47D; test: NCI in vitro DTP human cell line screen, T-47D; format: cell-based; details: Breast Cancer, 1.00E−5 Molar
Method: as §1

[47] = test system: NCI-H226; test: NCI in vitro DTP human cell line screen, NCI-H226; format: cell-based; details: Non-Small Cell Lung Cancer, 1.00E−5 Molar
Method: as §1

[48] = test system: CCRF-CEM; test: NCI in vitro DTP human cell line screen, CCRF-CEM; format: cell-based; details: Leukemia, 1.00E−5 Molar
Method: as §1

## COc1ccc(CSc2ccc3c(=O)c4ccccc4sc3c2Cl)cc1 [No. 27, 4-Chloro-3-(4-methoxybenzylthio)-9H-thioxanthen-9-one]
[1]
  Growth Percent: 107.02%
[2]
  Growth Percent: 108.05%
[3]
  Growth Percent: 99.12%
[4]
  Growth Percent: 108.69%
[5]
  Growth Percent: 104.37%
[6]
  Growth Percent: 121.13%
[7]
  cell viabilities of A3 cell lines (MTT assay): 101 ± 2.95%
[8]
  Growth Percent: 101.77%
[9]
  Growth Percent: 91.61%
[10]
  Growth Percent: 108.76%
[11]
  Growth Percent: 93.39%
[12]
  Growth Percent: 125.16%
[13]
  Growth Percent: 93.21%
[14]
  Growth Percent: 100.47%
[15]
  Growth Percent: 101.32%
[16]
  Growth Percent: 101.55%
[17]
  Growth Percent: 104.94%
[18]
  Growth Percent: 95.54%
[19]
  Growth Percent: 103.69%
[20]
  Growth Percent: 97.16%
[21]
  Growth Percent: 114.70%
[22]
  Growth Percent: 107.44%
[23]
  Growth Percent: 102.31%
[24]
  Growth Percent: 99.76%
[25]
  Growth Percent: 94.49%
[26]
  Growth Percent: 107.44%
[27]
  Growth Percent: 110.61%
[28]
  Growth Percent: 96.93%
[29]
  Growth Percent: 97.97%
[30]
  Growth Percent: 106.98%
[31]
  Growth Percent: 95.58%
[32]
  Growth Percent: 105.73%
[33]
  Growth Percent: 96.42%
[34]
  cell viabilities of A control cell lines (MTT assay): 50.5%
[34]; summary of MTT cell viabilities
  inhibition effect on A control cell line (in words): inhibition effect
[35]
  Growth Percent: 102.18%
[36]
  Growth Percent, Mean: 103.13%
[37]
  Growth Percent: 117.83%
[38]
  Growth Percent: 103.70%
[39]
  Growth Percent: 118.75%
[40]
  Growth Percent: 84.48%
[41]
  Growth Percent: 100.89%
[42]
  Growth Percent: 106.73%
[43]
  Growth Percent: 107.96%
[44]
  Growth Percent: 105.39%
[45]
  Growth Percent: 99.92%
[46]
  Growth Percent: 88.81%
[47]
  Growth Percent: 100.46%
[48]
  Growth Percent: 89.83%
